From patent US20030134851A1, “Methods and compositions for providing glutamine” (priority 2001, published 2003)

How the values were obtained:
[1] = Aqueous stability at various pH values, ambient temperature (HPLC); format: physicochemical; conditions: for GLN (glutamine) in glutamine solution / PGA (pyroglutamic acid) in glutamine solution: pH 6.0, 1 mg/mL
Description: HPLC analysis was conducted using an Inertsil® C8, 5 micrometer, 4.6×250 mm column (obtained from Keystone Scientific, Inc., Bellefonte, Pa.). The mobile phase was water adjusted to pH 2.2 with HCl (isocratic at 1 mL/minute). The injection volume was 10 microliters. Ultraviolet detection was at 214 nm. In order to test the stability of N-acetyl-L-glutamine in aqueous solutions at various pH values, the following procedure was followed. Aqueous solutions of N-acetyl-L-glutamine were prepared in 1 pH unit increments from pH 2.0 to 8.0. The pH of the solutions was adjusted with either hydrochloric acid or sodium hydroxide, as needed, just prior to final dilution (final concentration=1 mg/mL or 5.3 mM N-acetyl-L-glutamine). A single solution of glutamine was not pH adjusted (measured pH=6.0) and was prepared at 1 mg/mL or 6.8 mM glutamine. All solutions were sterile-filtered (Millipore Millex®-GS, 25 mm, 0.22 micrometer pore size, sterile) into autosampler vials and capped for storage at ambient temperature (17-25° C.). N-acetyl-L-glutamine samples were assessed by HPLC at various time points, from 1 to 180 days. The glutamine sample was assessed by HPLC at similar time points, from 1 to 45 days.

[2] = Aqueous N-acetyl-L-glutamine and glutamine heat stability at 100° C. (HPLC); format: physicochemical; conditions: for Stability during incubation at 100° C. (in words): aqueous solution, 2 hour incubation at 100° C.
Description: In order to test the stability of aqueous N-acetyl-glutamine upon heating, the following procedure was followed. Aqueous solutions of N-acetyl-L-glutamine (obtained from Sigma, catalog no. A-9125) and glutamine (obtained from Aldrich, catalog no. G-320-2) at approximately 1 mg/mL (5.3 mM and 6.8 mM, respectively) were prepared without pH adjustment. The pH of the resulting N-acetyl-L-glutamine solution was 2.9 and the pH of the glutamine solution was 6.0. The solutions were heated at 100° C. using a Reacti-Therm™ stirring heat block with sealed 4 mL vessels, one for each time point: 15 minutes, 30 minutes, 1 hour and 2 hours. The samples were removed from the heat block and immediately placed into ice until cool. An aliquot of each sample was filtered through 0.45 micrometer filters (Millipore Millex®-HV, 25 mm) for assessment by HPLC. HPLC analysis was conducted using an Inertsil® C8, 5 micrometer, 4.6×250 mm column (obtained from Keystone Scientific, Inc., Bellefonte, Pa.). The mobile phase was water adjusted to pH 2.2 with HCl (isocratic at 1 mL/minute). The injection volume was 10 microliters. Ultraviolet detection was at 214 nm.

[3] = approx. 1 mg/mL, pH 6.0, 100° C., 30 min
[4] = approx. 1 mg/mL, pH 6.0, 100° C., 60 min
[5] = approx. 1 mg/mL, pH 6.0, 100° C., 120 min
[6] = pH 3.0, ambient temperature, 6 months

## NC(=O)CC[C@H](N)C(=O)O [Glutamine, glutamine]
[1]; ambient temperature, 2 days
  GLN (glutamine) in glutamine solution: 100.0 height percent
  PGA (pyroglutamic acid) in glutamine solution: none detected
[1]; ambient temperature, 3 days
  GLN (glutamine) in glutamine solution: 99.8 height percent
  PGA (pyroglutamic acid) in glutamine solution: 0.2 height percent
[1]; ambient temperature, 7 days
  GLN (glutamine) in glutamine solution: 99.5 height percent
  PGA (pyroglutamic acid) in glutamine solution: 0.5 height percent
[1]; ambient temperature, 15 days
  GLN (glutamine) in glutamine solution: 99.0 height percent
  PGA (pyroglutamic acid) in glutamine solution: 1.0 height percent
[1]; ambient temperature, 30 days
  GLN (glutamine) in glutamine solution: 98.1 height percent
  PGA (pyroglutamic acid) in glutamine solution: 1.9 height percent
[1]; ambient temperature, 45 days
  GLN (glutamine) in glutamine solution: 96.7 height percent
  PGA (pyroglutamic acid) in glutamine solution: 3.3 height percent
[2]; approx. 1 mg/mL (6.8 mM), pH 6.0, 100° C., 0 min
  GLN (glutamine) in glutamine solution: 100.0 height %
[2]; approx. 1 mg/mL, pH 6.0, 100° C., 0 min
  PGA (pyroglutamic acid) in glutamine solution: none detected
[2]; [3]
  GLN (glutamine) in glutamine solution: 90.2 height %
  PGA (pyroglutamic acid) in glutamine solution: 9.8 height %
[2]; [4]
  GLN (glutamine) in glutamine solution: 80.0 height %
  PGA (pyroglutamic acid) in glutamine solution: 20.0 height %
[2]; [5]
  GLN (glutamine) in glutamine solution: 53.6 height %
  GLU (glutamate) in glutamine solution: 10.6 height %
  PGA (pyroglutamic acid) in glutamine solution: 35.8 height %
[2]
  Stability during incubation at 100° C. (in words): not stable

## CC(=O)N[C@@H](CCC(N)=O)C(=O)O [N-acetyl-L-glutamine]
[1]; 1 mg/mL, all pH values (2.0 to 8.0), ambient temperature, through 7 days
  Degradation of N-acetyl-L-glutamine: no degradation
[1]; pH 2.0, ambient temperature, 6 months
  N-acetyl-L-glutamine remaining: 55.7%
[1]; pH 2.0, ambient temperature, 15 days
  N-acetyl-L-glutamine remaining: 97.0%
[1]; pH 3.0, ambient temperature, 4 months
  N-acetyl-L-glutamine remaining: 94.2%
[1]; [6]
  N-acetyl-L-glutamine remaining: 90.4%
  N-acetyl-glutamic acid and 2,6-dioxopiperidinylacetamide (approximately equal levels): about 5%
[1]; pH 3.0, ambient temperature, 15 days
  N-acetyl-glutamic acid and 2,6-dioxopiperidinylacetamide (approximately equal levels): about 0.15%
[1]; pH 3.0, ambient temperature, 30 days
  N-acetyl-glutamic acid and 2,6-dioxopiperidinylacetamide (approximately equal levels): about 1%
[1]; pH 3.0, ambient temperature, through 90 days
  N-acetyl-L-glutamine remaining: > 95%
[1]; pH 4.0, ambient temperature, six months
  N-acetyl-L-glutamine remaining: 97.9%
[1]; pH 5.0 to 8.0, ambient temperature, 6 months
  N-acetyl-L-glutamine remaining: greater than 99.6%
[2]; approx. 1 mg/mL (5.3 mM), pH 2.9, 100° C., 0 min
  NAQ (N-acetyl-L-glutamine) in N-acetyl-L-glutamine solution: 99.7 area %
[2]; approx. 1 mg/mL, pH 2.9, 100° C., 30 min
  NAQ (N-acetyl-L-glutamine) in N-acetyl-L-glutamine solution: 98.1 area %
[2]; approx. 1 mg/mL, pH 2.9, 100° C., 60 min
  NAQ (N-acetyl-L-glutamine) in N-acetyl-L-glutamine solution: 96.9 area %
[2]; approx. 1 mg/mL, pH 2.9, 100° C., 120 min
  NAQ (N-acetyl-L-glutamine) in N-acetyl-L-glutamine solution: 93.4 area %
[2]
  Stability during incubation at 100° C. (in words): much more stable than glutamine
[2]; pH 2.9, 100° C., 0 min
  NAE (N-acetyl-L-glutamic acid) in N-acetyl-L-glutamine solution: 0.3 area %
[2]; pH 2.9, 100° C., 30 min
  2,6-DPA (2,6-dioxopiperidinylacetamide) in N-acetyl-L-glutamine solution: 0.6 area %
  NAE (N-acetyl-L-glutamic acid) in N-acetyl-L-glutamine solution: 1.2 area %
[2]; pH 2.9, 100° C., 60 min
  2,6-DPA (2,6-dioxopiperidinylacetamide) in N-acetyl-L-glutamine solution: 1.3 area %
  NAE (N-acetyl-L-glutamic acid) in N-acetyl-L-glutamine solution: 1.8 area %
[2]; pH 2.9, 100° C., 120 min
  2,6-DPA (2,6-dioxopiperidinylacetamide) in N-acetyl-L-glutamine solution: 2.7 area %
  NAE (N-acetyl-L-glutamic acid) in N-acetyl-L-glutamine solution: 3.7 area %
  PGA (pyroglutamic acid) in N-acetyl-L-glutamine solution: 0.2 area %
